The source of these data is ChEMBL document CHEMBL4406917, “Approaches for Prevention and Treatment of Neurodegenerative Diseases: ALS and Alzheimer's” (ACS Med Chem Lett, 2019).

SMILES strings stand for the structures. Values after ≈ are worked out from the molar mass of the structure shown.

The nature of data set [1]: Toxicity in SOD1-G93A mutant-induced ALS C57BL/6 mouse model assessed as effect on animal survival at 50 mg/kg, ip. The format is organism-based. As to conditions: in vivo; call rule not given here.
The next data set concerns SH-SY5Y. The data set can be described thus: (§1) Activation of NF-KappaB (unknown origin) expressed in SH-SY5Y cells co-transfected with pNFkappaB-Luc plasmid measured after 24 hrs by Bright-Glo luciferase assay. It is filed as cell-based. As to conditions: Homo sapiens.
Data set [2] is described as follows: as §1. The conditions noted are these: Homo sapiens. It is filed as cell-based.
The nature of data set [3]: Drug uptake in brain of SOD1-G93A mutant-induced ALS C57BL/6 mouse model at 50 mg/kg, ip measured within 30 mins. The format is ADME, organism-based. The conditions noted are these: in vivo, 0.5 h.
Data set [4] can be described thus: Drug uptake in plasma of SOD1-G93A mutant-induced ALS C57BL/6 mouse model at 50 mg/kg, ip measured within 30 mins. It is filed as ADME, organism-based. As to conditions: in vivo, 0.5 h.
Data set [5] in a line: Kinetic solubility of compound at pH 7.4 by shake flask method. The conditions noted are these: buffer, read-out: Kinetic_solubility. The format is physicochemical.

What is called EC50 is the concentration needed to bring the measured effect to its halfway point. Consider `Cc1cccnc1Nc1nc(-c2ccccn2)cs1`, for which the Activity entry in data set [1] was “Non-Toxic”. In the data set with SH-SY5Y, this compound displayed an ECmax of 40 µM. The compound also came in with an EC50 in data set [2] of 210 nM. The Drug uptake result in data set [3] and in data set [4] was “Active” in each case.
`COC(=O)c1ccc(-c2cnc(Nc3c(F)cccc3F)o2)cc1`: in the data set with SH-SY5Y, the ECmax stood at 42.6 µM.
On to `O=C(O)c1cccc(-c2cnc(Nc3ccccc3F)o2)c1`, for which the ECmax with SH-SY5Y amounted to 23.5 µM. In addition, the solubility kinetic in data set [5] is 56 µM (≈ 16.7 µg/mL).
On to `O=C(/C=C\Nc1ccccc1Br)c1ccc2c(c1)OCO2`, for which, in data set [1], the Activity result is on record as “Non-Toxic”. Besides, the ECmax with SH-SY5Y is 26 µM. The compound also registered an EC50 in data set [2] of 500 nM. The Drug uptake entry in data set [3] and in data set [4] was “Active” in each case.
